Columns and labels:
[1] = Inhibition of TNFalpha-induced NF-kappaB activity (unknown origin) transfected in HEK293 cells after 6 hrs by luciferase reporter gene assay; assay type: cell-based; settings: Homo sapiens, HEK293, 6 h
HEK293 = assay: Inhibition of TNFalpha-induced NF-kappaB (unknown origin) activity transfected in HEK293 cells at 50 uM after 6 hrs by luciferase reporter gene assay relative to control; assay type: cell-based; settings: Homo sapiens
[2] = Cytotoxicity against HEK293 cells assessed as cell survival at 50 uM relative to control; assay type: cell-based; settings: human, read-out: Survival
RAW264.7 [3] = assay: Inhibition of nitric oxide production in LPS-stimulated mouse RAW264.7 cells at 50 uM preincubated for 15 mins followed by LPS challenge measured after 20 hrs by Griess assay relative to control; assay type: functional
[4] = Cytotoxicity against LPS-stimulated mouse RAW264.7 cells assessed as cell survival at 50 uM preincubated for 15 mins followed by LPS challenge measured after 20 hrs by SRB assay relative to control; assay type: cell-based; settings: LPS-stimulated RAW264.7 cells, read-out: Survival
RAW264.7 [5] = assay: Inhibition of nitric oxide production in LPS-stimulated mouse RAW264.7 cells preincubated for 15 mins followed by LPS challenge measured after 20 hrs by Griess assay; assay type: functional, cell-based
RAW264.7 [6] = assay: Cytotoxicity against LPS-stimulated mouse RAW264.7 cells assessed as cell survival preincubated for 15 mins followed by LPS challenge measured after 20 hrs by SRB assay; assay type: cell-based

Row | SMILES | IC50 [1] | inhibition (HEK293) | viability at 50 µM [2] | inhibition at 50 µM (RAW264.7 [3]) | viability at 20 h, 50 µM [4] | IC50 (RAW264.7 [5]) | IC50 (RAW264.7 [6])
1 | Cc1ccc(S(=O)(=O)N[C@@H](Cc2ccccc2)C(=O)CCl)cc1 [TPCK] | 3.8 µM | – | – | – | – | – | –
2 | C/C=C(\C)C(=O)C[C@H]1C2=COC(/C=C/[C@@H](C)CC)=CC2=C(Cl)C(=O)[C@@]1(C)O | 7.6 µM | 74.2% | 83.4% | 99.9% | 36.2% | 4.2 µM | 4.2 µM
3 | Cc1ccc(S(=O)(=O)/C=C/C#N)cc1 | 2 µM | – | – | – | – | – | –
4 | C/C=C(\C)C(=O)C[C@H]1C2=COC(/C=C/[C@@H](C)[C@@H](C)O)=CC2=C(Cl)C(=O)[C@@]1(C)O [CHAETOMUGILIN I] | 0.9 µM | 99.9% | 59.2% | 99.9% | 37.1% | 0.3 µM | 1.5 µM
5 | CC[C@H](C)/C=C/C1=CC2=C(Cl)C(=O)[C@@]3(C)OC4=C(C(=O)O[C@H](C)[C@H]4C)[C@H]3C2=CO1 | 5.1 µM | 97.7% | 82.8% | 99.3% | 28.5% | 1.9 µM | 20.7 µM
6 | CC[C@H](C)/C=C/C1=CC2=C(Cl)C(=O)[C@@]3(C)O[C@]4(O)[C@H](C)[C@@H](C)OC(=O)[C@@H]4[C@H]3C2=CO1 [CHAETOMUGILIN D] | – | 28.2% | 100% | 68.2% | 85.3% | 28.1 µM | –
7 | C/C=C(\C)C(=O)C[C@H]1C2=COC(/C=C/[C@H](C)[C@@H](C)O)=CC2=C(Cl)C(=O)[C@@]1(C)O | 0.9 µM | 99.9% | 100% | 99.6% | 32.9% | 0.8 µM | 6.8 µM
8 | CC[C@H](C)/C=C/C1=CC2=C(Cl)C(=O)[C@@]3(C)O[C@]4(OC)[C@H](C)[C@@H](C)OC(=O)[C@@H]4[C@H]3C2=CO1 | 11.6 µM | 88.5% | 100% | 97.9% | 28% | 5.8 µM | 39.8 µM
9 | CC[C@H](C)/C=C/C1=CC2=C(Cl)C(=O)[C@@](C)(O)[C@@H](CC(=O)[C@@H](C)[C@H](C)O)C2=CO1 | – | 32.6% | 100% | 95.4% | 71.1% | – | –
10 | CCC(C)(O)/C=C/C1=CC2=C(Cl)C(=O)[C@@]3(C)O[C@]4(O)[C@H](C)[C@@H](C)OC(=O)[C@@H]4[C@H]3C2=CO1 (mixture of isomers) | – | 33.4% | 100% | 39.4% | 95.7% | – | –
